The results in this text go back to US9029378B2, “Substituted bicyclic aromatic carboxamide and urea compounds as vanilloid receptor ligands” (Gruenenthal GmbH, priority 2011, dated 2015).

In the first assay the target is T1, vanilloid receptor 1 (VR1/TRPV1 receptor) (Homo sapiens, UniProt Q8NER1).
T1 construct: expressed in transfected cells; host or cells: CHO K1
T1 sequence (Q8NER1 whole entry): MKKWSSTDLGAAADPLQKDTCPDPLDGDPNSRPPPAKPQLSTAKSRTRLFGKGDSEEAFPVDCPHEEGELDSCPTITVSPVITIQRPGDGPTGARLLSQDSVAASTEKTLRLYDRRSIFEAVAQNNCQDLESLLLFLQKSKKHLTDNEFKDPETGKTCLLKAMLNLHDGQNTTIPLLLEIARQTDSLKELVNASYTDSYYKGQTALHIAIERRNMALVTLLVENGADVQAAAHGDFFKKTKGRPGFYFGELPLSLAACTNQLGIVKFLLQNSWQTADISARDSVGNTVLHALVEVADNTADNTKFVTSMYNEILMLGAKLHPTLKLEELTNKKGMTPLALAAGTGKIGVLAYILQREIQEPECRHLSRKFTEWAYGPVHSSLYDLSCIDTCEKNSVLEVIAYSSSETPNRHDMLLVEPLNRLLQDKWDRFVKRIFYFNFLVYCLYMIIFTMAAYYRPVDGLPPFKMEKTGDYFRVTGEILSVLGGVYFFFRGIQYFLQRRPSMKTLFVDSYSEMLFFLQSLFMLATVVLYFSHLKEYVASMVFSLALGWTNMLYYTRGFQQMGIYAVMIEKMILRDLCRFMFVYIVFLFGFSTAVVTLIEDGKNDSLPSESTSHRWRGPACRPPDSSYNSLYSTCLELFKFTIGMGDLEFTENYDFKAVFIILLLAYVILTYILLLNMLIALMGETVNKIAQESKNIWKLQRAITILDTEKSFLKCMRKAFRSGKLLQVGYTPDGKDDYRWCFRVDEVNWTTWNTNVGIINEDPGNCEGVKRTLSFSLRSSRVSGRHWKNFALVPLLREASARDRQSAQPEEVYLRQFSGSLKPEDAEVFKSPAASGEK
In words: Functional testing on the vanilloid receptor 1 (FLIPR Ca2+ influx assay, capsaicin). Type of assay: cell-based, human being. Also noted: key to (f) (human being) Cap: effect in words (agonist / no effect): AG=agonist; NE=no effect. Conditions: Cap=capsaicin. The method in brief:
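Ca2+ influx was read with Fluo-4 on a FLIPR against 100 nM capsaicin, in CHO K1 cells transfected with human VR1. The detailed protocol describes rat dorsal root ganglion neurons cultured 2–3 days on laminin/poly-D-lysine plates in medium with 25 ng/mL NGF.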
As for `CC1CCN(c2nc(C(F)(F)F)ccc2CNC(=O)Nc2ccc3ncn(C)c3c2)CC1` [Example 26, 1-(1-Methyl-1H-benzo[d]imidazol-6-yl)-3-((2-(4-methylpiperidin-1-yl)-6-(trifluoromethyl)pyridin-3-yl)methyl)urea], the “(f) (human being) Cap: effect in words (agonist / no effect)” value was “AG”.

The same assay, now with this note: Cap=capsaicin (100 nM); Ki from IC50 by Cheng-Prusoff equation; read-out: (f) Ki (human being) [nM] Cap.
As to `CC1CCN(c2nc(C(F)(F)F)ccc2CNC(=O)Nc2cccc3c2cnn3C)CC1` [Example 46, 1-(1-Methyl-1H-indazol-4-yl)-3-((2-(4-methylpiperidin-1-yl)-6-(trifluoromethyl)pyridin-3-yl)methyl)urea], the inhibition constant (Ki) came out at 0.5 nM.

Take `CC1CCN(c2cc(C(F)(F)F)ccc2CNC(=O)Nc2cccc3ncccc23)CC1` [Example 63, 1-(2-(4-Methylpiperidin-1-yl)-4-(trifluoromethyl)benzyl)-3-(quinolin-5-yl)urea]: the Ki stood at 0.7 nM.

For the molecule `CC1CCN(c2nc(C(C)(C)C)ccc2CNC(=O)Nc2cc(F)cc3[nH]ncc23)CC1` [Example 52, 1-((6-Tert-butyl-2-(4-methylpiperidin-1-yl)pyridin-3-yl)methyl)-3-(6-fluoro-1H-indazol-4-yl)urea], the inhibitory constant (Ki) was 2 nM. `O=C(NCc1ccc(C(F)(F)F)nc1SC1CCCCC1)Nc1ccc2cccnc2c1` [Example 71, 1-((2-(Cyclohexylthio)-6-(trifluoromethyl)pyridin-3-yl)methyl)-3-(quinolin-7-yl)urea]: the inhibition constant Ki came to 5 nM. Same read-out and setting: to `CC1CCN(c2nc(C(F)(F)F)ccc2CNC(=O)Nc2cccc3c2ccn3S(C)(=O)=O)CC1` [Example 42, 1-((2-(4-Methylpiperidin-1-yl)-6-(trifluoromethyl)pyridin-3-yl)methyl)-3-(1-(methylsulfonyl)-1H-indol-4-yl)urea] belongs 2 nM; to `CCCCOc1nc(C(F)(F)F)ccc1CNC(=O)Nc1cccc2c1cnn2C` [Example 47, 1-((2-Butoxy-6-(trifluoromethyl)pyridin-3-yl)methyl)-3-(1-methyl-1H-indazol-4-yl)urea], 3 nM. In the case of `CCCCOc1nc(C(F)(F)F)ccc1CNC(=O)Nc1cccc2ncccc12` [Example 67, 1-((2-Butoxy-6-(trifluoromethyl)pyridin-3-yl)methyl)-3-(quinolin-5-yl)urea], the inhibitory constant (Ki) is 2 nM. With “N-(2-(4-Methylpiperidin-1-yl)-4-(trifluoromethyl)benzyl)-2-(quinolin-3-yl)propanamide [Example 16]”, the Ki amounted to 10 nM. Turning to `CN(C)C1(c2ccccc2)CCN(c2nc(C(F)(F)F)ccc2CNC(=O)Nc2cccc3[nH]ncc23)CC1` [Example 45, 1-((2-(4-(dimethylamino)-4-phenylpiperidin-1-yl)-6-(trifluoromethyl)pyridin-3-yl)methyl)-3-(1H-indazol-4-yl)urea], the inhibition constant (Ki) amounted to 7 nM. Regarding `CC1CCN(c2nc(C(C)(C)C)ccc2CNC(=O)Nc2cccc3cnccc23)CC1` [Example 76, 1-((6-Tert-butyl-2-(4-methylpiperidin-1-yl)pyridin-3-yl)methyl)-3-(isoquinolin-5-yl)urea], the Ki was determined as 0.1 nM.
